Experimental data as given in PubChem BioAssay (NCI).
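48-hour exposure; five concentrations; linearly interpolated endpoints. GI50 marks 50% less growth. TGI is the concentration that stops growth completely.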

Experiments:
Assay in all cases: DTP human tumour cell line panel, 48 h
NCI-H460 lung = test system: NCI-H460 lung
UACC-257 melanoma = test system: UACC-257 melanoma
CCRF-CEM leukemia = test system: CCRF-CEM leukemia
K-562 leukemia = test system: K-562 leukemia
KM12 colon = test system: KM12 colon
NCI-H522 lung = test system: NCI-H522 lung
RPMI-8226 leukemia = test system: RPMI-8226 leukemia
HT29 colon = test system: HT29 colon
HOP-92 NSCLC = test system: HOP-92 NSCLC
DU-145 prostate = test system: DU-145 prostate

COc1ccc2[nH]c3c4c(ccc3c2c1)C(=O)C=CC4=O
TGI (NCI-H460 lung): 54.1 µM | TGI (UACC-257 melanoma): 27.7 µM | TGI (CCRF-CEM leukemia): 6.55 µM | TGI (K-562 leukemia): 3.97 µM | TGI (KM12 colon): 49.1 µM | TGI (NCI-H522 lung): 3.66 µM | TGI (RPMI-8226 leukemia): 10.4 µM | TGI (HT29 colon): 46.9 µM | TGI (HOP-92 NSCLC): 7.64 µM | TGI (DU-145 prostate): > 100 µM

CCOC(=O)CNC(=O)c1ccccc1Nc1ccnc(C(F)(F)F)c1
GI50 (NCI-H460 lung): 29.8 µM | TGI (NCI-H460 lung): > 68.1 µM | GI50 (UACC-257 melanoma): 68.7 µM | TGI (UACC-257 melanoma): > 100 µM | GI50 (CCRF-CEM leukemia): 7.97 µM | TGI (CCRF-CEM leukemia): > 37.9 µM | GI50 (K-562 leukemia): 24 µM | TGI (K-562 leukemia): > 69.4 µM | GI50 (KM12 colon): 30.2 µM | TGI (KM12 colon): > 86 µM | GI50 (NCI-H522 lung): 27.8 µM | TGI (NCI-H522 lung): > 70.5 µM | GI50 (RPMI-8226 leukemia): 12.7 µM | TGI (RPMI-8226 leukemia): 35.1 µM | GI50 (HT29 colon): 44.4 µM | TGI (HT29 colon): > 100 µM | GI50 (HOP-92 NSCLC): 0.0572 µM | TGI (HOP-92 NSCLC): 7.62 µM | GI50 (DU-145 prostate): 46.9 µM | TGI (DU-145 prostate): 99.8 µM

NC(CS/C(Cl)=C/Cl)C(=O)O (stereo not drawn)
GI50 (NCI-H460 lung): 0.427 µM | TGI (NCI-H460 lung): 2 µM | GI50 (UACC-257 melanoma): 23.3 µM | TGI (UACC-257 melanoma): 78.8 µM | GI50 (CCRF-CEM leukemia): 20.3 µM | TGI (CCRF-CEM leukemia): > 100 µM | GI50 (K-562 leukemia): 33.4 µM | TGI (K-562 leukemia): > 100 µM | GI50 (KM12 colon): 67.3 µM | TGI (KM12 colon): > 100 µM | GI50 (NCI-H522 lung): > 55.6 µM | TGI (NCI-H522 lung): > 100 µM | GI50 (RPMI-8226 leukemia): 12.5 µM | TGI (RPMI-8226 leukemia): 74.5 µM | GI50 (HT29 colon): 54.7 µM | TGI (HT29 colon): > 100 µM | GI50 (HOP-92 NSCLC): 33.2 µM | TGI (HOP-92 NSCLC): > 100 µM | GI50 (DU-145 prostate): 16.5 µM | TGI (DU-145 prostate): > 100 µM

COc1cccc(/C(COc2ccc3c(c2)oc(=O)c2cc(OC)ccc23)=N/O)c1
GI50 (NCI-H460 lung): 3.81 µM | TGI (NCI-H460 lung): > 100 µM | GI50 (UACC-257 melanoma): 34.8 µM | TGI (UACC-257 melanoma): > 100 µM | GI50 (CCRF-CEM leukemia): 11.4 µM | TGI (CCRF-CEM leukemia): > 100 µM | GI50 (K-562 leukemia): 4.43 µM | TGI (K-562 leukemia): > 100 µM | GI50 (KM12 colon): 3.86 µM | TGI (KM12 colon): > 100 µM | GI50 (NCI-H522 lung): 3.12 µM | TGI (NCI-H522 lung): 9.47 µM | GI50 (RPMI-8226 leukemia): 4.76 µM | TGI (RPMI-8226 leukemia): > 100 µM | GI50 (HT29 colon): 3.38 µM | TGI (HT29 colon): > 100 µM | GI50 (HOP-92 NSCLC): 37 µM | TGI (HOP-92 NSCLC): > 100 µM | GI50 (DU-145 prostate): 26 µM | TGI (DU-145 prostate): > 100 µM

C[C@]12CC[C@@H]3c4ccc(O)cc4CC[C@H]3[C@@H]1CC[C@@H]2NS(=O)(=O)c1cccc(F)c1
GI50 (NCI-H460 lung): 2.72 µM | TGI (NCI-H460 lung): 7.18 µM | GI50 (UACC-257 melanoma): 4.07 µM | TGI (UACC-257 melanoma): 16.3 µM | GI50 (CCRF-CEM leukemia): 3.28 µM | TGI (CCRF-CEM leukemia): 18.6 µM | GI50 (K-562 leukemia): 3.22 µM | TGI (K-562 leukemia): 15.2 µM | GI50 (KM12 colon): 2.34 µM | TGI (KM12 colon): 6.31 µM | GI50 (NCI-H522 lung): 1.89 µM | TGI (NCI-H522 lung): 7.6 µM | GI50 (RPMI-8226 leukemia): 3.65 µM | TGI (RPMI-8226 leukemia): 19.6 µM | GI50 (HT29 colon): 3.2 µM | TGI (HT29 colon): 10.1 µM | GI50 (HOP-92 NSCLC): 2.43 µM | TGI (HOP-92 NSCLC): 8.64 µM | GI50 (DU-145 prostate): 5.45 µM | TGI (DU-145 prostate): 17.9 µM

COc1ccc2c(c1)C(C)Cc1c(ncnc1-n1c(C)nc3ccccc31)N2C (stereo not drawn)
GI50 (NCI-H460 lung): 3.85 µM | TGI (NCI-H460 lung): 14.4 µM | GI50 (UACC-257 melanoma): 14.8 µM | TGI (UACC-257 melanoma): 33.5 µM | GI50 (CCRF-CEM leukemia): 2.85 µM | TGI (CCRF-CEM leukemia): 16.4 µM | GI50 (K-562 leukemia): 0.452 µM | TGI (K-562 leukemia): 13.3 µM | GI50 (KM12 colon): 2.59 µM | TGI (KM12 colon): 17.8 µM | GI50 (NCI-H522 lung): 1.96 µM | TGI (NCI-H522 lung): 5.38 µM | GI50 (RPMI-8226 leukemia): 3.96 µM | TGI (RPMI-8226 leukemia): 24.3 µM | GI50 (HT29 colon): 2.81 µM | TGI (HT29 colon): 8.94 µM | GI50 (HOP-92 NSCLC): 3.34 µM | TGI (HOP-92 NSCLC): 17.4 µM | GI50 (DU-145 prostate): 3.27 µM | TGI (DU-145 prostate): 13.4 µM

O=C(Nc1ccc(Br)cc1)c1ccc(Cl)c(Cl)c1
GI50 (NCI-H460 lung): 3.16 µM | TGI (NCI-H460 lung): > 30.5 µM | GI50 (UACC-257 melanoma): 3.69 µM | TGI (UACC-257 melanoma): > 89.2 µM | GI50 (CCRF-CEM leukemia): 4.81 µM | TGI (CCRF-CEM leukemia): > 100 µM | GI50 (K-562 leukemia): 3.99 µM | TGI (K-562 leukemia): > 100 µM | GI50 (KM12 colon): 3.16 µM | TGI (KM12 colon): > 100 µM | GI50 (NCI-H522 lung): 2.75 µM | TGI (NCI-H522 lung): 16.2 µM | GI50 (RPMI-8226 leukemia): 3.15 µM | TGI (RPMI-8226 leukemia): > 100 µM | GI50 (HT29 colon): 3.42 µM | TGI (HT29 colon): > 100 µM | GI50 (HOP-92 NSCLC): 0.341 µM | TGI (HOP-92 NSCLC): 5.1 µM | GI50 (DU-145 prostate): 3.86 µM | TGI (DU-145 prostate): > 100 µM

COc1ccc2c(c1)[C@@]13CCCC[C@H]1[C@@H](C2)N(C)CC3=O
TGI (NCI-H460 lung): 69.5 µM | TGI (UACC-257 melanoma): 30.5 µM | TGI (CCRF-CEM leukemia): 73.6 µM | TGI (K-562 leukemia): > 100 µM | TGI (KM12 colon): 33.6 µM | TGI (NCI-H522 lung): 32.9 µM | TGI (RPMI-8226 leukemia): 96.8 µM | TGI (HT29 colon): 37.5 µM | TGI (HOP-92 NSCLC): 28.4 µM | TGI (DU-145 prostate): 45.2 µM

COc1ccc2c(O)cc3c(c2c1)[C@H](CCl)CN3C(=O)c1cc2cc(NC(=O)CCN3CCOCC3)ccc2[se]1
GI50 (NCI-H460 lung): < 0.001 µM | TGI (NCI-H460 lung): 1.09 µM | GI50 (UACC-257 melanoma): < 0.001 µM | TGI (UACC-257 melanoma): 0.00319 µM | GI50 (CCRF-CEM leukemia): < 0.001 µM | GI50 (K-562 leukemia): < 0.001 µM | TGI (K-562 leukemia): > 10 µM | GI50 (KM12 colon): < 0.001 µM | GI50 (NCI-H522 lung): < 0.001 µM | TGI (NCI-H522 lung): 0.0298 µM | GI50 (RPMI-8226 leukemia): 0.00149 µM | TGI (RPMI-8226 leukemia): 0.0263 µM | GI50 (HT29 colon): < 0.001 µM | TGI (HT29 colon): > 3.24 µM | GI50 (HOP-92 NSCLC): < 0.001 µM | TGI (HOP-92 NSCLC): 0.00216 µM | GI50 (DU-145 prostate): < 0.001 µM | TGI (DU-145 prostate): 0.137 µM
